Drawing on ChEMBL document CHEMBL5321246, “Aurones: A Promising Scaffold to Inhibit SARS-CoV-2 Replication” (J Nat Prod, 2023), this text covers EC50 for one molecule.

Molecules are shown by their SMILES.

For the assay, the system named is SARS-CoV-2. The assay can be described thus: Antiviral activity against SARS-CoV-2 infected in Vero E6 cells assessed as inhibition of viral replication preincubated with cells for 1 hr and subsequent viral infection for 2 hrs followed by replacement with fresh medium containing compounds and measured after 24 hrs by qRT-PCR analysis. The following applies: Severe acute respiratory syndrome coronavirus 2, Vero C1008. In kind it is functional, organism-based.

By EC50 is commonly meant the concentration needed to bring the measured effect to its halfway point. Consider `O=c1c(O)c(-c2cc(O)c(O)c(O)c2)oc2cc(O)cc(O)c12` [MYRICETIN], for which the EC50 was 8 µM.
